Measured values from PMC10135569, “Does Enhanced Structural Maturity of hiPSC-Cardiomyocytes Better for the Detection of Drug-Induced Cardiotoxicity?” (Biomolecules, 2023).

Tests used:
[1] = test system: hiPSC-CMs (iCell2 Cardiomyocytes) 2D monolayers; assay: Membrane potential (action potential) recordings with FluoVolt voltage-sensitive dye on the CellOPTIQ platform; assay type: cell-based, human; conditions: for activity at 0.3 µM / activity at 1 µM / activity at 3 µM / activity at 10 µM: Homo sapiens, Cardiomyocyte, 0.5 h, 30 min, delta over DMSO 0.1%
Procedure, shortened: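 iCell2 hiPSC-CM monolayers (50,000 cells/well on fibronectin or Matrix Plus, days 5–6) were loaded with FluoVolt (1:1000, 20 min, 37 °C) and imaged at 37 °C with 470 nm excitation and 510–560 nm emission sampled at 10 kHz. Spontaneous action potentials were recorded for 10 s at baseline and 30 min after drug, with one of four concentrations per well (n = 8).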

[2] = test system: hiPSC-CMs (iCell2 Cardiomyocytes) 2D monolayers; assay: Contractility measurements using video imaging (ContractilityTool / MUSCLEMOTION); assay type: cell-based, human; conditions: Homo sapiens, Cardiomyocyte, 0.5 h, 30 min, delta over DMSO 0.1%
Procedure, shortened: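 Monolayers on fibronectin or Matrix Plus coating, tested on days 5–6 in serum-free medium. Four concentrations, one per well, n = 8, with vehicle control.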

[3] = listed in Supplementary Table S1; no reference given; cited from earlier work
[4] = FM monolayer, read-out: APD30 (%DD)
[5] = FM monolayer, read-out: APD90 (%DD)
[6] = FM monolayer, read-out: CL (%DD)
[7] = FM monolayer, read-out: Trise (%DD)
[8] = MM monolayer, read-out: APD30 (%DD)
[9] = MM monolayer, read-out: APD90 (%DD)
[10] = MM monolayer, read-out: CL (%DD)
[11] = MM monolayer, read-out: Trise (%DD)
[12] = FM monolayer, read-out: CtAmp (%DD)
[13] = FM monolayer, read-out: CtD50 (%DD)
[14] = MM monolayer, read-out: CtAmp (%DD)
[15] = MM monolayer, read-out: CtD50 (%DD)
[16] = both FM and MM monolayers, concentration not given

Cc1[nH]c(=O)c(C#N)cc1-c1ccncc1 [Milrinone]
activity at 0.3 µM [1, 4]: 96 ± 1.8%
activity at 0.3 µM [1, 5]: 96 ± 1.2%
activity at 0.3 µM [1, 6]: 96 ± 1.6%
activity at 0.3 µM [1, 7]: 80 ± 13.1%
activity at 1 µM [1, 4]: 100 ± 1%
activity at 1 µM [1, 5]: 96 ± 0.7%
activity at 1 µM [1, 6]: 99 ± 0.8%
activity at 1 µM [1, 7]: 74 ± 13.3%
activity at 3 µM [1, 4]: 96 ± 1.9%
activity at 3 µM [1, 5]: 94 ± 0.4%
activity at 3 µM [1, 6]: 100 ± 0.7%
activity at 3 µM [1, 7]: 68 ± 7.3%
activity at 10 µM [1, 4]: 92 ± 2%
activity at 10 µM [1, 5]: 95 ± 1.1%
activity at 10 µM [1, 6]: 103 ± 0.6%
activity at 10 µM [1, 7]: 106 ± 26.8%
activity at 0.3 µM [1, 8]: 96 ± 1.6%
activity at 0.3 µM [1, 9]: 97 ± 1.1%
activity at 0.3 µM [1, 10]: 97 ± 0.2%
activity at 0.3 µM [1, 11]: 112 ± 18.8%
activity at 1 µM [1, 8]: 97 ± 0.7%
activity at 1 µM [1, 9]: 99 ± 0.5%
activity at 1 µM [1, 10]: 100 ± 0.6%
activity at 1 µM [1, 11]: 125 ± 11.4%
activity at 3 µM [1, 8]: 97 ± 1.4%
activity at 3 µM [1, 9]: 102 ± 1.4%
activity at 3 µM [1, 10]: 101 ± 0.5%
activity at 3 µM [1, 11]: 132 ± 27.3%
activity at 10 µM [1, 8]: 95 ± 1%
activity at 10 µM [1, 9]: 100 ± 0.9%
activity at 10 µM [1, 10]: 103 ± 0.2%
activity at 10 µM [1, 11]: 102 ± 7%
activity at 0.3 µM [2, 12]: 103 ± 10.9%
activity at 0.3 µM [2, 13]: 101 ± 1.7%
activity at 1 µM [2, 12]: 116 ± 13.2%
activity at 1 µM [2, 13]: 104 ± 2.4%
activity at 3 µM [2, 12]: 100 ± 8.4%
activity at 3 µM [2, 13]: 103 ± 1.7%
activity at 10 µM [2, 12]: 81 ± 5.7%
activity at 10 µM [2, 13]: 101 ± 1.7%
activity at 0.3 µM [2, 14]: 131 ± 17.5%
activity at 0.3 µM [2, 15]: 100 ± 1%
activity at 1 µM [2, 14]: 115 ± 6.3%
activity at 1 µM [2, 15]: 105 ± 1.8%
activity at 3 µM [2, 14]: 76 ± 9.1%
activity at 3 µM [2, 15]: 104 ± 1.5%
activity at 10 µM [2, 14]: 129 ± 28.5%
activity at 10 µM [2, 15]: 100 ± 1.4%
Free Cmax [3]: 2320 nM

C=C[C@H]1C[N@@]2CC[C@H]1C[C@@H]2[C@@H](O)c1ccnc2ccc(OC)cc12 [Quinidine]
activity at 0.3 µM [1, 4]: 105 ± 2.9%
activity at 0.3 µM [1, 5]: 115 ± 2.5%
activity at 0.3 µM [1, 7]: 103 ± 14%
activity at 1 µM [1, 4]: 104 ± 1.4%
activity at 1 µM [1, 5]: 122 ± 1.4%
activity at 1 µM [1, 7]: 135 ± 8.3%
activity at 0.3 µM [1, 8]: 104 ± 1.4%
activity at 0.3 µM [1, 9]: 108 ± 1.2%
activity at 0.3 µM [1, 11]: 111 ± 15.7%
activity at 1 µM [1, 8]: 100 ± 1.2%
activity at 1 µM [1, 9]: 115 ± 0.8%
activity at 1 µM [1, 11]: 123 ± 15%
activity at 3 µM [1, 8]: 103 ± 2.1%
activity at 3 µM [1, 9]: 121 ± 1.2%
activity at 3 µM [1, 11]: 188 ± 23.3%
effect on AP rise time (Trise) (in words) [1, 16]: increased
effect on APD90 (in words) [1, 16]: increased
effect on cycle length (in words) [1, 16]: increased
electrical activity of the monolayers at higher concentrations ([1]; higher concentrations, FM and MM): electrically quiescent
activity at 0.3 µM [2, 12]: 66 ± 15.3%
activity at 0.3 µM [2, 13]: 111 ± 6.3%
activity at 1 µM [2, 12]: 162 ± 50.3%
activity at 1 µM [2, 13]: 106 ± 1.8%
activity at 0.3 µM [2, 14]: 118 ± 21.6%
activity at 0.3 µM [2, 15]: 107 ± 2.7%
activity at 1 µM [2, 14]: 99 ± 13.1%
activity at 1 µM [2, 15]: 97 ± 2.5%
activity at 3 µM [2, 14]: 106 ± 11.4%
activity at 3 µM [2, 15]: 105 ± 1.5%
Free Cmax [3]: 920 nM
